Measurements reported in US20230399312A1, “SUBSTITUTED PYRIMIDINES AND METHODS OF USE” (THERAVANCE BIOPHARMA R&D IP, LLC, priority 2020, published 2023).

Experiments:
[1] = system: TGF-β-stimulated SMAD3 phosphorylation in BEAS-2B cells; test: Cellular ALK5 potency assay, inhibition of TGF-β stimulated pSMAD3 formation in BEAS-2B cells; type: cell-based; conditions: Homo sapiens, pSMAD3, TGF-β 10 ng/mL, read-out: BEAS2B pIC50 (converted)
Outline: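 BEAS-2B cells, HBSS/25 mM HEPES/1% BSA buffer; cpd 1 h, 37 °C; TGF-β 10 ng/mL final, 30 min; lysis, AlphaLISA pSMAD3 read next day. pIC50 vs stimulated no-compound baseline.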

[2] = target: T1, recombinant human ALK5 (TGF-βR1) protein (Homo sapiens, UniProt P36897); test: Biochemical ALK5 (TGF-βR1) assay to measure pKi (LANCE Ultra ULight kinase assay); conditions: apparent pKi, converted from pIC50 by Cheng-Prusoff
T1 construct: purchased Life Technologies PR9075A
T1 sequence (P36897 34-503): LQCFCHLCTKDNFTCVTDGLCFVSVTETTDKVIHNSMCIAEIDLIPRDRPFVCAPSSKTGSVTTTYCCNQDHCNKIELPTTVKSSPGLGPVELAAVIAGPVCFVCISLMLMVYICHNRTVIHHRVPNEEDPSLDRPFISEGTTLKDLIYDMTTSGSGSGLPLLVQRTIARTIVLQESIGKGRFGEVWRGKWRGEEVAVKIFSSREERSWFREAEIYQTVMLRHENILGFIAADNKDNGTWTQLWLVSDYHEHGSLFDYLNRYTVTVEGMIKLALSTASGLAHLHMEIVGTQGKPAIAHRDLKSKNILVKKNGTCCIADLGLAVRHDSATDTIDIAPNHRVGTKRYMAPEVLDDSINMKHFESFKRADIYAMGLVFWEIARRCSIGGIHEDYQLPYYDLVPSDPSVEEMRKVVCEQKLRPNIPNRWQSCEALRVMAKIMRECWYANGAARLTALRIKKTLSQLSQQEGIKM
Outline: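 Enzyme was preincubated with compound for 60 min at room temperature, then ATP (added from a 125 μM 5× stock with 2 mM DTT) started a 60 min reaction at 37 °C. EDTA plus Eu-anti-phospho-Topo2α (Thr1342) antibody stopped it; TR-FRET pIC50 values were converted to pKi by Cheng-Prusoff.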

Row | SMILES | IC50 [1] [nM] | Ki [2] [nM]
1 | Cc1cccc(-c2nccc(Nc3ccnc(Nc4ccc(CN5CCC[C@H](C(=O)OCC6CNC6)C5)cc4)n3)n2)n1 [Compound 67, azetidin-3-ylmethyl (3S)-1-[[4-[[4-[[2-(6-methyl-2-pyridyl)pyrimidin-4-yl]amino]pyrimidin-2-yl]amino]phenyl]methyl] piperidine-3-carboxylate] | 25.1 to 158 | 0.0398 to 0.316
2 | Cc1cccc(-c2nccc(Nc3ccnc(Nc4ccc(CN5CC(C(=O)O[C@@H]6CCN(C)C6)C5)cc4)n3)n2)n1 [Compound 69, [(3R)-1-methylpyrrolidin-3-yl] 1-[[4-[[4-[[2-(6-methyl-2-pyridyl)pyrimidin-4-yl]amino]pyrimidin-2-yl]amino]phenyl]methyl] azetidine-3-carboxylate] | 25.1 to 158 | 0.0398 to 0.316
3 | Cc1cccc(-c2nccc(Nc3ccnc(Nc4ccc(S(=O)(=O)NCCN(C)C)cc4)n3)n2)n1 [Compound 70, N-[2-(dimethylamino)ethyl]-4-[[4-[[2-(6-methyl-2-pyridyl)pyrimidin-4-yl]amino]pyrimidin-2-yl]amino]benzenesulfonamide] | 25.1 to 158 | 0.0398 to 0.316
4 | Cc1cccc(-c2nccc(Nc3ccnc(Nc4ccc(N5CCC(C(=O)O)CC5)cc4)n3)n2)n1 [Compound 71, 1-[4-[[4-[[2-(6-methyl-2-pyridyl)pyrimidin-4-yl]amino]pyrimidin-2-yl]amino]phenyl]piperidine-4-carboxylic acid] | 25.1 to 158 | 0.0398 to 0.316
5 | Cc1cccc(-c2nccc(Nc3ccnc(Nc4cccc(C(=O)N5CCOCC5)c4)n3)n2)n1 [Compound 72, [3-[[4-[[2-(6-methyl-2-pyridyl)pyrimidin-4-yl]amino]pyrimidin-2-yl]amino]phenyl]-morpholino-methanone] | 25.1 to 158 | 0.398 to 3.16
6 | Cc1cccc(-c2nccc(Nc3ccnc(Nc4ccc(CN5CCC[C@H](C(=O)OCC6CN(C)C6)C5)cc4)n3)n2)n1 [Compound 73, (1-methylazetidin-3-yl)methyl (3S)-1-[[4-[[4-[[2-(6-methyl-2-pyridyl)pyrimidin-4-yl]amino]pyrimidin-2-yl]amino]phenyl]methyl] piperidine-3-carboxylate] | 25.1 to 158 | 0.0398 to 0.316
7 | Cc1cccc(-c2nccc(Nc3ccnc(Nc4ccc(CN5CC[C@H](O)C5)cc4)n3)n2)n1 [Compound 74, (3S)-1-[[4-[[4-[[2-(6-methyl-2-pyridyl)pyrimidin-4-yl]amino]pyrimidin-2-yl]amino]phenyl]methyl] pyrrolidin-3-ol] | 25.1 to 158 | 0.0398 to 0.316
8 | Cc1cccc(-c2nccc(Nc3ccnc(Nc4ccc(CN5C[C@H]6CC[C@@H](C5)N6)cc4)n3)n2)n1 [Compound 75, N4-[2-(6-methyl-2-pyridyl)pyrimidin-4-yl]-N2-[4-[[rac-(1S,5R)-3,8-diazabicyclo[3.2.1]octan-3-yl]methyl]phenyl]pyrimidine-2,4-diamine] | 25.1 to 158 | 0.0398 to 0.316
9 | Cc1cccc(-c2nccc(Nc3ccnc(Nc4ccc(NC(=O)C5CNC5)cc4)n3)n2)n1 [Compound 76, N-[4-[[4-[[2-(6-methyl-2-pyridyl)pyrimidin-4-yl]amino]pyrimidin-2-yl]amino]phenyl]azetidine-3-carboxamide] | ≤ 20 | 0.0398 to 0.316
10 | Cc1cccc(-c2nccc(Nc3ccnc(Nc4ccc(NC(=O)C5CCN(C6CCOCC6)CC5)cc4)n3)n2)n1 [Compound 77, N-[4-[[4-[[2-(6-methyl-2-pyridyl)pyrimidin-4-yl]amino]pyrimidin-2-yl]amino]phenyl]-1-tetrahydropyran-4-yl-piperidine-4-carboxamide] | 25.1 to 158 | 0.0398 to 0.316
11 | Cc1cccc(-c2nccc(Nc3ccnc(Nc4ccc(NC(=O)C5CCNC5)cc4)n3)n2)n1 (stereo not shown) [Compound 78, N-[4-[[4-[[2-(6-methyl-2-pyridyl)pyrimidin-4-yl]amino]pyrimidin-2-yl]amino]phenyl]pyrrolidine-3-carboxamide] | ≤ 20 | 0.0398 to 0.316
12 | COc1cc(Nc2nccc(Nc3ccnc(-c4cccc(C)n4)n3)n2)ccc1N1CCOCC1 [Compound 79, N2-(3-methoxy-4-morpholino-phenyl)-N4-[2-(6-methyl-2-pyridyl)pyrimidin-4-yl]pyrimidine-2,4-diamine] | 25.1 to 158 | 0.0398 to 0.316
13 | CCN1CCN(c2ccc(Nc3nccc(Nc4ccnc(-c5cccc(C)n5)n4)n3)cc2)CC1 [Compound 80, N2-[4-(4-ethylpiperazin-1-yl)phenyl]-N4-[2-(6-methyl-2-pyridyl)pyrimidin-4-yl]pyrimidine-2,4-diamine] | 25.1 to 158 | 0.0398 to 0.316
14 | Cc1cccc(-c2nccc(Nc3ccnc(Nc4ccc(C)c(CN5C[C@@H](C)N[C@@H](C)C5)c4)n3)n2)n1 [Compound 81, N4-[2-(6-methyl-2-pyridyl)pyrimidin-4-yl]-N2-[4-methyl-3-[[rac-(3R,5S)-3,5-dimethylpiperazin-1-yl]methyl]phenyl]pyrimidine-2,4-diamine] | 25.1 to 158 | 0.0398 to 0.316
15 | Cc1cccc(-c2nccc(Nc3ccnc(Nc4ccc(CC(=O)O)cc4)n3)n2)n1 [Compound 82, 2-[4-[[4-[[2-(6-methyl-2-pyridyl)pyrimidin-4-yl]amino]pyrimidin-2-yl]amino]phenyl]acetic acid] | 1580 to 10000 | 0.398 to 3.16
16 | COC(=O)C1CCCN(c2ccc(Nc3nccc(Nc4ccnc(-c5cccc(C)n5)n4)n3)cc2)C1 (stereo not shown) [Compound 83, methyl 1-[4-[[4-[[2-(6-methyl-2-pyridyl)pyrimidin-4-yl]amino]pyrimidin-2-yl]amino]phenyl]piperidine-3-carboxylate] | 25.1 to 158 | 0.0398 to 0.316
17 | Cc1cccc(-c2nccc(Nc3ccnc(Nc4cnn(CCN5CCOCC5)c4)n3)n2)n1 [Compound 84, N4-(2-(6-methylpyridin-2-yl)pyrimidin-4-yl)-N2-(1-(2-morpholinoethyl)-1H-pyrazol-4-yl)pyrimidine-2,4-diamine] | 25.1 to 158 | 0.0398 to 0.316
18 | Cc1cccc(-c2nccc(Nc3ccnc(Nc4cc(C(=O)OC5CCNCC5)cs4)n3)n2)n1 [Compound 85, 4-piperidyl 5-[[4-[[2-(6-methyl-2-pyridyl)pyrimidin-4-yl]amino]pyrimidin-2-yl]amino]thiophene-3-carboxylate] | 25.1 to 158 | 0.0398 to 0.316
19 | Cc1cccc(-c2nccc(Nc3ccnc(Nc4cnc(N5CCNCC5)nc4)n3)n2)n1 [Compound 86, N4-(2-(6-methylpyridin-2-yl)pyrimidin-4-yl)-N2-(2-(piperazin-1-yl)pyrimidin-5-yl)pyrimidine-2,4-diamine] | 200 to 1260 | 0.398 to 3.16
20 | Cc1cccc(-c2nccc(Nc3ccnc(Nc4cccc(S(=O)(=O)N(C)C5CCNCC5)c4)n3)n2)n1 [Compound 87, N-methyl-3-[[4-[[2-(6-methyl-2-pyridyl)pyrimidin-4-yl]amino]pyrimidin-2-yl]amino]-N-(4-piperidyl)benzenesulfonamide] | 200 to 1260 | 3.98 to 31.6
21 | Cc1cccc(-c2nccc(Nc3ccnc(Nc4ccc(CN5CC(C(=O)OCC6CNC6)C5)cc4)n3)n2)n1 [Compound 88, azetidin-3-ylmethyl 1-(4-((4-((2-(6-methylpyridin-2-yl)pyrimidin-4-yl)amino)pyrimidin-2-yl)amino)benzyl)azetidine-3-carboxylate] | 25.1 to 158 | 0.0398 to 0.316
22 | Cc1cccc(-c2nccc(Nc3ccnc(Nc4csc(C(=O)NCC5CNC5)c4)n3)n2)n1 [Compound 89, N-(azetidin-3-ylmethyl)-4-[[4-[[2-(6-methyl-2-pyridyl)pyrimidin-4-yl]amino]pyrimidin-2-yl]amino]thiophene-2-carboxamide] | ≤ 20 | ≤ 0.0316
23 | CNC1CCN(c2ccc(Nc3nccc(Nc4ccnc(-c5ccccc5F)n4)n3)cc2)CC1 [Compound 90, N4-[2-(2-fluorophenyl)pyrimidin-4-yl]-N2-[4-[4-(methylamino)-1-piperidyl]phenyl]pyrimidine-2,4-diamine] | 25.1 to 158 | 0.398 to 3.16
24 | Cc1cccc(-c2nccc(Nc3ccnc(Nc4ccc(C(=O)NCC5CNC5)cc4)n3)n2)n1 [Compound 92, N-(azetidin-3-ylmethyl)-4-[[4-[[2-(6-methyl-2-pyridyl)pyrimidin-4-yl]amino]pyrimidin-2-yl]amino]benzamide] | ≤ 20 | 0.0398 to 0.316
25 | Cc1cccc(-c2nccc(Nc3ccnc(Nc4ccc(NS(=O)(=O)N5CCNCC5)cc4)n3)n2)n1 [Compound 93, N-[4-[[4-[[2-(6-methyl-2-pyridyl)pyrimidin-4-yl]amino]pyrimidin-2-yl]amino]phenyl]piperazine-1-sulfonamide] | 200 to 1260 | 0.0398 to 0.316
26 | Cc1cccc(-c2nccc(Nc3ccnc(Nc4csc(CN5CCNCC5)c4)n3)n2)n1 [Compound 94, N4-(2-(6-methylpyridin-2-yl)pyrimidin-4-yl)-N2-(5-(piperazin-1-ylmethyl)thiophen-3-yl)pyrimidine-2,4-diamine] | ≤ 20 | ≤ 0.0316
